Assay results published in ChEMBL document CHEMBL1122771, “Effects of volume and surface property in hydrolysis by acetylcholinesterase. The trimethyl site” (J Med Chem, 1984).

How the values were obtained:
[1] = Compound was tested for hydrolysis by acetylcholinesterase and the kinetic constant (kcat) which is a first-order rate constant was determined
[2] = tested on: acetylcholinesterase; test: Compound was tested for hydrolysis by acetylcholinesterase and the kinetic constant, (Km) an apparent dissociation constant, and related to the enzyme's affinity for the substrate was reported; format: ADME
[3] = tested on: acetylcholinesterase; test: in vitro
Description: Compound was tested for hydrolysis by acetylcholinesterase and the kinetic constant, (Km) an apparent dissociation constant, and related to the enzyme's affinity for the substrate was reported.

CC(=O)OCCS(C)(=O)=O
k cat [1]: 11 s⁻¹
Km [2]: 6.2 mM

CC(=O)OCCCl
Km ([3]; acetylcholinesterase): 14 mM
k cat [1]: 3400 s⁻¹

CC(=O)OCCC(C)C
Km ([3]; acetylcholinesterase): 3.6 mM
k cat [1]: 3400 s⁻¹

CC(=O)OCCBr
Km ([3]; acetylcholinesterase): 7.5 mM
k cat [1]: 4500 s⁻¹

CC(=O)OCCC(C)(C)C
k cat [1]: 66 s⁻¹
Km [2]: 5.3 mM

CSCCOC(C)=O
Km ([3]; acetylcholinesterase): 15 mM
k cat [1]: 3500 s⁻¹

CC(=O)OCC[N+](C)(C)[O-]
Km ([3]; acetylcholinesterase): 18 mM
k cat [1]: 4500 s⁻¹

CC(=O)OCC[S+](C)[O-] (stereo not given)
Km ([3]; acetylcholinesterase): 16 mM
k cat [1]: 3800 s⁻¹

CC(=O)OCC[Si](C)(C)C
Km ([3]; acetylcholinesterase): 3.5 mM
k cat [1]: 5700 s⁻¹

CC(=O)OCC[S+](C)C.[Br-]
Km ([3]; acetylcholinesterase): 0.33 mM
k cat [1]: 7700 s⁻¹

CCCCOC(C)=O [ACETIC ACID BUTYL ESTER]
Km [3]: 13 mM
k cat [1]: 36 s⁻¹

CC(=O)OCC[N+](C)(C)C [ACETYLCHOLINE]
k cat [1]: 160 s⁻¹
Km [2]: 0.33 mM

CCOC(C)=O [ETHYL ACETATE]
k cat [1]: 2900 s⁻¹
